Where two headings read alike, the source gives them in different places.
Tests used:
[1] = target: T1, HER-2/ErbB2 kinase (Homo sapiens, UniProt P04626); test: HER-2 Kinase Assay (ELISA); format: biochemical; settings: 20 μM ATP, 25° C. 60 minutes
T1 construct: purchased Invitrogen corporation #PV3366
Description: An enzyme linked immunosorbent assays (ELISA) was conducted to measure the kinase activity of HER-2 in vitro.
a. Wash Buffer (PBS-T Buffer): 1×PBS (137 mM NaCl; 2.7 mM KCl, 4.3 mM Na2HPO4, 1.4 mM KH2PO4, adjust the pH to 7.2) and 0.05% Tween-20.
(§1) b. 1% Bovine Serum Albumin (BSA, Calbiochem #136593) in PBS-T.
c. Stop Buffer: 50 mM EDTA, pH 8.0.
d. DELFIA® Europium-labeled Anti-mouse IgG (PerkinElmer Life Sciences #AD0124).
e. DELFIA® Enhancement Solution (PerkinElmer Life Sciences #1244-105).
f. DELFIA® Streptavidin coated, 96-well, yellow plate (PerkinElmer Life Sciences #AAAND-0005).
g. HER-2/ErbB2 kinase (Invitrogen corporation #PV3366).
(§2) h. 10 mM ATP solution (Cell signaling technology #9804).
i. FLT3 (Tyr589) Biotinylated Peptide (Cell signaling technology #1305).
(§3) j. Phospho-Tyrosine Mouse mAb (P-Tyr-100) (Cell signaling technology #9411).
(§4) k. HTScan™ Tyrosine Kinase Buffer (4×)
(§5) (Cell signaling technology #9805).
(§6) l. 1.25 M DTT (1000×) (Cell signaling technology).
(§7) The following protocol was used:
1. Dilute test compound with DMSO to the desired final assay concentration. Add 1 μl test compound for every assay, to the negative control.
2. Dilute 6 μM substrate peptide (Tyr589) 1:1 with dH2O, add 15 μl to every assay.
3. Immediately transfer HER-2 enzyme from −80° C. to ice. Allow enzyme to thaw on ice.
4. Take 4.5 μg HER-2 enzyme to the enzyme tube.
(§8) 5. Add 10 μl of DTT (1.25 M) to 2.5 ml of 4×HTScan™ Tyrosine Kinase Buffer (240 mM HEPES pH 7.5, 20 mM MgCl2, 20 mM MnCl2, 12 μM Na3VO4) to make DTT/Kinase buffer.
(§9) 6. Transfer 0.75 ml of DTT/Kinase buffer to each enzyme tube to make 4× reaction cocktail. Add 7.5 μl 4× reaction cocktail to every assay.
7. Add 4 μl ATP (10 mM) to 496 μl dH2O, take 7.5 μl for every assay. Final Assay Conditions for a 30 μl Reaction
(§10) Incubate reaction tube at 25° C. for 60 minutes. 9. Add 30 μl/assay stop buffer (50 mM EDTA, pH 8.0) to stop the reaction. 10. Transfer 25 μl of each reaction and 75 μl dH2O/well to a 96-well streptavidin coated plate and incubate, with shaking at room temperature for 60 minutes. 11. Wash three times with 200 μl/well PBS-T buffer. Pat plate on paper towel to remove excess liquid. 12. Dilute primary antibody, Phospho-Tyrosine mAb (P-Tyr-100), 1:1000 in PBS-T buffer with 1% BSA. Add 100 μl diluted primary antibody to each well. 13. Incubate, with shaking at room temperature for 60 minutes. 14. Wash as described above in step 11. 15. Dilute Europium labeled anti-mouse IgG 1:500 in PBS-T buffer with 1% BSA. Add 100 μl diluted antibody to each well. 16. Incubate, with shaking at room temperature for 30 minutes. 17. Wash five times with 200 μl/well PBS-T buffer. Pat plate on paper towel to remove excess liquid. 18. Add 100 μl/well DELFIA® Enhancement Solution. 19. Incubate, with shaking at room temperature for 5 minutes. 20. Detect 615 nm fluorescence emission with appropriate Time-Resolved Plate Reader.
(§11) Calculate the inhibition rate: IR (%)=100−100*(X−B)/(N−B)
(§12) X=the fluorescence value of the well contained test compound
(§13) The IC50 value can be derived from the IRs of compounds at different concentration gradients.

[2] = system: A431 cell; test: Cell Proliferation Inhibition EGFR Assay (SRB method); format: cell-based, homo sapient; settings: Homo sapiens, read-out: IC50 (A431)
Method in brief: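 A431 cells grown to ~85% confluence, then exposed 72 hours at 37° C to 6 to 7 serial concentrations of compound in DMEM/F12 + 10% FBS, final DMSO ≤0.5%. Growth measured by TCA fixation and sulforhodamine B staining; IC50 calculated from inhibition rates.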

[3] = target: T2, EGFR kinase (Homo sapiens, UniProt P00533); test: EGFR Kinase Assay; format: biochemical; settings: 20 μM ATP, 25° C. 45 minutes
T2 construct: purchased Cell signaling technology #7908
T2 sequence (P00533 25-1210): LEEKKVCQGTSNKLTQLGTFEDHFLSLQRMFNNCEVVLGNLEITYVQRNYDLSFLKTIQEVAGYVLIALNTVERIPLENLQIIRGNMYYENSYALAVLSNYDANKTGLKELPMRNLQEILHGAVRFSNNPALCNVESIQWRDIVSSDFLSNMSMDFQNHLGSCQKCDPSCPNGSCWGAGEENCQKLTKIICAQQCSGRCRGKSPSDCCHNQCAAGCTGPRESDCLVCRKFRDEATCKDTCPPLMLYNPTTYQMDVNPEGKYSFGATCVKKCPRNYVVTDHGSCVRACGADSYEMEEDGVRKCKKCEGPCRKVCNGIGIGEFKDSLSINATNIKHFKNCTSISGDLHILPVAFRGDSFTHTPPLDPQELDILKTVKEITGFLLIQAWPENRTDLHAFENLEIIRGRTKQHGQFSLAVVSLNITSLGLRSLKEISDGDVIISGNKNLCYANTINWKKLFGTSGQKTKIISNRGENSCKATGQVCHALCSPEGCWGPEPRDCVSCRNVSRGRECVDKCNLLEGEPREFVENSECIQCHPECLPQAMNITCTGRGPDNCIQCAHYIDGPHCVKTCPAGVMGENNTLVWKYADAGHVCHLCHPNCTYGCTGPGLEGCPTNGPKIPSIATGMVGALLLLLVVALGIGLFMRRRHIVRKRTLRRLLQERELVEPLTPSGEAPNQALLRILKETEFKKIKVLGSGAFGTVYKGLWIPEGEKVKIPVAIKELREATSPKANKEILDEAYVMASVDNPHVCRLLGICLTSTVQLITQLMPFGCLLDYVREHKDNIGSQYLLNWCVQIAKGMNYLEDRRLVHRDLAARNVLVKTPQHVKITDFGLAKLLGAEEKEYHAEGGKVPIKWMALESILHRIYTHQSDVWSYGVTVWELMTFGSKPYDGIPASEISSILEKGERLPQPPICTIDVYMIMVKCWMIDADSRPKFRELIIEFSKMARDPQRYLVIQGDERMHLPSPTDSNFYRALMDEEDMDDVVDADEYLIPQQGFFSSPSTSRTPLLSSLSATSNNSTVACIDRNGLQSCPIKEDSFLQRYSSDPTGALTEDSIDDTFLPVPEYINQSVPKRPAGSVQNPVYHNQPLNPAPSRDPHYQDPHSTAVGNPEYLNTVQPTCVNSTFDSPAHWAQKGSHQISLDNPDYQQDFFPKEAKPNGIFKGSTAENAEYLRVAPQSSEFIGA
Description: EGFR kinase activity in vitro was measured as described below:
a. Wash Buffer (PBS-T Buffer): 1×PBS (137 mM NaCl, 2.7 mM KCl, 4.3 mM Na2HPO4, 1.4 mM KH2PO4, adjust the pH to 7.2) and 0.05% Tween-20.
as §1
c. Stop Buffer: 50 mM EDTA, pH 8.0
d. DELFIA® Europium-labeled Anti-mouse IgG (PerkinElmer Life Sciences #AD0124)
e. DELFIA® Enhancement Solution (PerkinElmer Life Sciences #1244-105)
f. DELFIA® Streptavidin coated, 96-well, yellow plate (PerkinElmer Life Sciences #AAAND-0005)
g. EGFR kinase (supplied in 50 mM Tris-HCl (pH 8.0), 100 mM NaCl, 5 mM DTT, 15 mM reduced glutathione and 20% glycerol. Cell signaling technology #7908).
as §2
i. PTP1B (Tyr66) Biotinylated Peptide (Cell signaling technology #1325).
as §3, §4, §5, §6, §7
1. Dilute test compound with DMSO to the desired final assay concentration.
2. Dilute 6 μM substrate peptide (Tyr66) 1:1 with dH2O, add 15 μl to every assay.
3. Immediately transfer EGFR enzyme from −80° C. to ice. Allow enzyme to thaw on ice.
4. Take 3 μg EGFR enzyme to the enzyme tube.
as §8, §9
7. Add 4 μl ATP (10 mM) to 496 μl dH2O, take 7.5 μl for every assay.
Final Assay Conditions for a 30 μl Reaction
as §10, with “C. for 45 minutes. 9.” for “C. for 60 minutes. 9.”
as §11, §12, §13

[4] = system: HUVEC cell; test: Cell Proliferation Inhibition VEGF-R2 Assay (SRB method); format: cell-based, homo sapient; settings: Homo sapiens; HUVEC cells, 72 hours exposure, Sulforhodamine B; read-out: IC50 (VEGFR/HUVEC)
Text: The following in vitro assay may be used to determine the level of activity and effect of different compounds of the present invention on the proliferation inhibition (cell toxic) of endothelium growth factor receptor (VEGFR) high expressing homo […] cancer cell-HUVEC cell. The cellular assay described here measure the compounds of their anti-angiogenesis and proliferation inhibition activity and effect through […] on the cancer cells in vitro. The effect and activity is represented by the IC50 value that kills the cancer cell. […] The homo […] highly express […] are chosen and seeded to 96-well cell culture plate at a suitable concentration (exp 5000 cells/ml medium). The cells then are cultured in carbon dioxide (CO2) incubator till when they confluence to about 85%. Then, the cell culture medium is replaced by fresh one with tested compounds added in it at serial concentrations (general 6 to 7 concentrations). Then the cells are put back to the culture and cultured for continuous 72 hours. 72 hours later, the cell exposed to compounds and control cell are assayed for their proliferation using Sulforhodamine B (SRB) method. […] Dimethyl sulfoxide (Sinophma chemical reagent company, catalog No. T20050806) • b. HUVEC cells (Purchased from Institute of biochemistry and cell biology) • c. […] Acetic Acid (Sinophma chemical reagent company, Catalog No. T20060508) • l. Trichloroacetic Acid (Sinophma chemical reagent company, Catalog No. T20060305) • m. […] Class II A/B3 Biological safety cabinet (ThermoForma Catalog No. HB0053-03) • o. […] Centrifuge (Fisher Scientific Marathon 8 k, Catalog No. 0027-02) • q. Novastar Plate reader (BMG Labtech, Catalog No. 700-0081) • r. […] Growing seeded 96-well plates at 37° C., 5% CO2, till 85% confluence. • 4. Prepare compounds stock solution, using DMSO solve candidate compounds to a concentration of 20 mM. […] Use cell culture medium (in this case, DMEM/F12+10% FBS) to dilute the compounds solution prepared above. Each DMSO serial concentration compound solution is diluted by 20 times with culture medium by adding 5 μl DMSO compound solution to 95 μl culture medium, then mix well by vortex. […] After HUVEC cell has attached to the dish bottom and confluence about 85%, change the culture medium with fresh DMEM/F12 plus 10% FBS. Each well added 180 μl medium, then add 20 μl medium solution of tested compounds prepared at step 5 to each well. For control group cell, add 20 μl culture medium containing 0.5% pure DMSO. […] Each 96-well plate, we can test 3 compounds with a control cell group. • 7. Put the culture plates back to incubator, culture for 72 hours at 37° C., 5% CO2. • 8. 72 hours later, remove cultures from incubator into sterile work area. • 9. Prepare fixative (50% Trichloroacetic Acid-TCA) by adding reagent grade water to the TCA, fix the cells by gently layering 50 μl of cold TCA solution on top of the growth medium. • 10. Incubate plates for 1 hour at 4° C. and then rinse with water several times to remove TCA, serum proteins, etc. Plates are air dried and stored until use. Bland background optical density is measured in wells incubated with growth medium without cells. • 11. Use 10% acetic acid solution to prepare 0.4% Sulforhodamine B solution. Add 50 μl sulforhodamine B solution to each well of 96-well plates. • 12. Allow cells to stain for 30 minutes. • 13. Prepared the wash solution of […] acetic acid. At the end of the staining period, the stain is removed and the cells rinsed quickly with 1% acetic acid. Repeat until unincorporated dye is removed. Keep wash times to a minimum to reduce desorption of protein-bound dye. After being rinsed, the cultures are air dried until no moisture is visible. • 14. The incorporated dye is then solubilized in a volume of Sulforhodamine B assay Solubilization solution (10 mM Tris) equal to the original volume of culture medium. Allow cultures to stand for 5 minutes at room temperature.

[5] = A-431, A431 cells, 72 hours exposure, Sulforhodamine B

T1 sequence (P04626 23-1255): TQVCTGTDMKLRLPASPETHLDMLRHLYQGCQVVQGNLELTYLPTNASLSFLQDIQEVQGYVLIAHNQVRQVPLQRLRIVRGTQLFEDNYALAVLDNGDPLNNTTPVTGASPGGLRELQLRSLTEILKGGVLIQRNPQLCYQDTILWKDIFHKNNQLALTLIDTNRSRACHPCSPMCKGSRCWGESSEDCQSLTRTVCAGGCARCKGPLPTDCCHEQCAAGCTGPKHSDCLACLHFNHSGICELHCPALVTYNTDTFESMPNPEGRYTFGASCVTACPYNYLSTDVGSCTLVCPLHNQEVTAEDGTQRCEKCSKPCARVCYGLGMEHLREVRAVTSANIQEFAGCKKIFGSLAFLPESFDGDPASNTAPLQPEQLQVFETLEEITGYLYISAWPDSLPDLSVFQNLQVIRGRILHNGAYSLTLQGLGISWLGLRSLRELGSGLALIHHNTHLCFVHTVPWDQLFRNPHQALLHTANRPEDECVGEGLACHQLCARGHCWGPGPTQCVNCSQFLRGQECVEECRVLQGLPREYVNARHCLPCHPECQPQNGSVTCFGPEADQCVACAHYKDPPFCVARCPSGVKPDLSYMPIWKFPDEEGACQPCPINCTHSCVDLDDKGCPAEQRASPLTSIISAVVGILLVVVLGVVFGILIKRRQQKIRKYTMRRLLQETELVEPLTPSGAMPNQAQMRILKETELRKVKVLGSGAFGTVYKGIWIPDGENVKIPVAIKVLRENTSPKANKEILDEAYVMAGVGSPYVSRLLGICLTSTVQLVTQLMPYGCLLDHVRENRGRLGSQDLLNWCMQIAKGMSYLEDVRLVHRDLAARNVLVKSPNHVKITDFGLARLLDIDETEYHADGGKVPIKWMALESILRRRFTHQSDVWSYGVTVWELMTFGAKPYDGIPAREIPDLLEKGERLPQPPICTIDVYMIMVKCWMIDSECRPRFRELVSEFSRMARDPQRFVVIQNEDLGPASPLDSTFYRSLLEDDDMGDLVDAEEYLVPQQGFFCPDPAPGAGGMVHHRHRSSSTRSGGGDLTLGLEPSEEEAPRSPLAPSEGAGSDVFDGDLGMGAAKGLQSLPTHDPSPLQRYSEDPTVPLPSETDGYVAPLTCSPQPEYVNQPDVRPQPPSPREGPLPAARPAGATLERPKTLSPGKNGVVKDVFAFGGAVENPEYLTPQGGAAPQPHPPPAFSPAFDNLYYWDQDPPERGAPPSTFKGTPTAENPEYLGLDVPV

| Compound | IC50 [1] | IC50 [2, 5] | IC50 [3] | IC50 ([2]; A-431, 72 h) | IC50 [4] |
| --- | --- | --- | --- | --- | --- |
| Cc1c(/C=C2\C(=O)Nc3cccc(Br)c32)[nH]c2c1C(=O)N(CCN1CCOCC1)CC2 [Example 49, 2-(4-Bromo-2-oxo-1,2-dihydro-indol-3-ylidenemethyl)-3-methyl-5-(2-morpholin-4-yl-ethyl)-1,5,6,7-tetrahydro-pyrrolo[3,2-c]pyridin-4-one] | 36.1 µM |  |  |  |  |
| Cc1c(/C=C2\C(=O)Nc3cccc(-c4cccc(Cl)c4F)c32)[nH]c2c1C(=O)N(CCN1CCCC1)CC2 [Example 68, 2-[4-(3-Chloro-2-fluoro-phenyl)-2-oxo-1,2-dihydro-indol-3-ylidenemethyl]-3-methyl-5-(2-pyrrolidin-1-yl-ethyl)-1,5,6,7-tetrahydro-pyrrolo[3,2-e]pyridin-4-one] | 0.53 µM | 13.8 µM |  |  |  |
| Cc1c(/C=C2\C(=O)Nc3ccc(F)cc32)[nH]c2c1C(=O)N(CCN1CCCC1)CC2 [Example 13, 2-(5-Fluoro-2-oxo-1,2-dihydro-indol-3-ylidenemethyl)-3-methyl-5-(2-pyrrolidin-1-yl-ethyl)-1,5,6,7-tetrahydro-pyrrolo[3,2-c]pyridin-4-one] |  | 1.31 µM | 0.19 µM |  |  |
| CCN(CC)CCN1CCc2[nH]c(/C=C3\C(=O)Nc4ccc(F)cc43)c(C)c2C1=O [Example 1, 5-(2-Diethylamino-ethyl)-2-(5-fluoro-2-oxo-1,2-dihydro-indol-3-ylidenemethyl)-3-methyl-1,5,6,7-tetrahydro-pyrrolo[3,2-c]pyridin-4-one] |  |  | 0.28 µM | 1.09 µM |  |
| CCN(CC)CCN1CCc2[nH]c(/C=C3\C(=O)Nc4ccc(Br)cc43)c(C)c2C1=O [Example 3, 2-(5-Bromo-2-oxo-1,2-dihydro-indol-3-ylidenemethyl)-5-(2-diethylamino-ethyl)-3-methyl-1,5,6,7-tetrahydro-pyrrolo[3,2-c]pyridin-4-one] |  |  | 0.49 µM | 1.26 µM |  |
| CCN(CC)CCN1CCc2[nH]c(/C=C3\C(=O)Nc4ccc(Cl)cc43)c(C)c2C1=O [Example 2, 2-(5-Chloro-2-oxo-1,2-dihydro-indol-3-ylidenemethyl)-5-(2-diethylamino-ethyl)-3-methyl-1,5,6,7-tetrahydro-pyrrolo[3,2-c]pyridin-4-one] |  |  | 0.29 µM | 1.04 µM |  |
| O=C1Nc2ccc(Br)cc2/C1=C/c1[nH]c2c(c1-c1ccccc1)C(=O)NCC2 [Example 41, 2-(5-Bromo-2-oxo-1,2-dihydro-indol-3-ylidenemethyl)-3-phenyl-1,5,6,7-tetrahydro-pyrrolo[3,2-c]pyridin-4-one] |  |  | 6.01 µM |  | 0.22 µM |

Source: patent US8697692B2, “Pyrrolo [3,2-c] pyridine-4-one 2-indolinone protein kinase inhibitors” (Shanghai Hengrui Pharmaceutical Co., Ltd., priority 2006, dated 2014)
